Laboratory results from the supplement of paper PMC10307832.

Legend:
Assay in all cases: relative viability (nuclei count vs DMSO), 5 days (fraction); higher = more cells survive
AZ505 + OSI-027 = compound: C1CCC(CC1)N(CCNCCC2=C3C(=C(C=C2)O)NC(=O)CO3)C(=O)CCNCCC4=CC(=C(C=C4)Cl)Cl [AZ505] + COc1cccc2cc(-c3nc([C@H]4CC[C@H](C(=O)O)CC4)n4ncnc(N)c34)[nH]c12 [OSI-027] (partner 0.5 µM)
Method in brief: (§1)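 Relative viability equals treated-well nuclei counts divided by vehicle-well nuclei counts. Counts came from 4× images of lung cancer cell lines grown in 1536-well plates for 5 days after pin-tool dosing on the day after seeding. Dosing used one drug alone or a fixed anchor-drug dose plus five library-drug doses (not always all listed) in √10 steps, and values are medians of duplicate plates.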

AZ505 + Linsitinib = compound: C1CCC(CC1)N(CCNCCC2=C3C(=C(C=C2)O)NC(=O)CO3)C(=O)CCNCCC4=CC(=C(C=C4)Cl)Cl [AZ505] + C[C@]1(O)C[C@@H](c2nc(-c3ccc4ccc(-c5ccccc5)nc4c3)c3c(N)nccn32)C1 [Linsitinib] (partner 1 µM)
Method in brief: as §1

AZ505 + Phenformin = compound: C1CCC(CC1)N(CCNCCC2=C3C(=C(C=C2)O)NC(=O)CO3)C(=O)CCNCCC4=CC(=C(C=C4)Cl)Cl [AZ505] + N=C(N)NC(=N)NCCc1ccccc1 [Phenformin] (partner 250 µM)
Method in brief: as §1

Dactolisib + Luminespib = compound: Cn1c(=O)n(-c2ccc(C(C)(C)C#N)cc2)c2c3cc(-c4cnc5ccccc5c4)ccc3ncc21 [Dactolisib] + CCNC(=O)c1noc(-c2cc(C(C)C)c(O)cc2O)c1-c1ccc(CN2CCOCC2)cc1 [Luminespib] (partner 0.01 µM)
Method in brief: as §1

Row | Cell Line | relative viability (AZ505 + OSI-027; first compound 0.08 µM) | relative viability (AZ505 + OSI-027; first compound 0.253 µM) | relative viability (AZ505 + OSI-027; first compound 0.8 µM) | relative viability (AZ505 + OSI-027; first compound 2.53 µM) | relative viability (AZ505 + OSI-027; first compound 8 µM) | relative viability (AZ505 + Linsitinib; first compound 0.08 µM) | relative viability (AZ505 + Linsitinib; first compound 0.253 µM) | relative viability (AZ505 + Linsitinib; first compound 0.8 µM) | relative viability (AZ505 + Linsitinib; first compound 2.53 µM) | relative viability (AZ505 + Linsitinib; first compound 8 µM) | relative viability (AZ505 + Phenformin; first compound 0.08 µM) | relative viability (AZ505 + Phenformin; first compound 0.253 µM) | relative viability (AZ505 + Phenformin; first compound 0.8 µM) | relative viability (AZ505 + Phenformin; first compound 2.53 µM) | relative viability (AZ505 + Phenformin; first compound 8 µM) | relative viability (Dactolisib + Luminespib; first compound 0.002 µM) | relative viability (Dactolisib + Luminespib; first compound 0.006325 µM) | relative viability (Dactolisib + Luminespib; first compound 0.02 µM) | relative viability (Dactolisib + Luminespib; first compound 0.06325 µM) | relative viability (Dactolisib + Luminespib; first compound 0.2 µM)
1 | PC-3 [JPC-3] | 0.671 | 0.798 | 0.712 | 0.707 | 0.797 | 0.923 | 0.935 | 0.938 | 0.862 | 0.947 | 0.423 | 0.446 | 0.433 | 0.484 | 0.422 | 0.759 | 0.639 | 0.683 | 0.472 | 0.48
2 | BEN | 0.287 | 0.274 | 0.259 | 0.304 | 0.309 | 0.735 | 1.1 | 0.904 | 0.891 | 1.12 | 0.24 | 0.239 | 0.293 | 0.262 | 0.286 | 0.382 | 0.234 | 0.366 | 0.25 | 0.268
3 | NCI-H1666 | 0.779 | 0.817 | 0.725 | 0.93 | 0.912 | 0.835 | 0.718 | 0.849 | 0.726 | 0.941 | 0.56 | 0.599 | 0.587 | 0.557 | 0.483 | 1.1 | 0.963 | 1.02 | 0.746 | 0.788
4 | LC-2-ad | 0.747 | 0.759 | 0.629 | 0.876 | 0.912 | 0.819 | 0.901 | 0.844 | 0.883 | 0.845 | 0.561 | 0.538 | 0.572 | 0.64 | 0.579 | 1.14 | 0.923 | 0.922 | 0.551 | 0.524
5 | SW 1573 | 0.589 | 0.579 | 0.689 | 0.68 | 0.63 | 0.666 | 0.828 | 0.849 | 0.872 | 0.829 | 0.36 | 0.402 | 0.333 | 0.341 | 0.373 | 0.234 | 0.214 | 0.214 | 0.168 | 0.0994
6 | COR-L 105 | 0.626 | 0.572 | 0.615 | 0.62 | 0.752 | 0.703 | 1.05 | 0.761 | 0.779 | 1.01 | 0.451 | 0.454 | 0.547 | 0.473 | 0.583 | 0.776 | 0.889 | 0.55 | 0.334 | 0.254
7 | NCI-H1975 | 0.636 | 0.724 | 0.804 | 0.82 | 0.812 | 0.907 | 0.923 | 0.783 | 0.919 | 0.955 | 0.348 | 0.402 | 0.419 | 0.405 | 0.429 | 0.133 | 0.157 | 0.181 | 0.144 | 0.123
8 | NCI-H1993 | 0.568 | 0.572 | 0.51 | 0.529 | 0.556 | 0.677 | 0.654 | 0.728 | 0.91 | 0.7 | 0.472 | 0.426 | 0.546 | 0.56 | 0.478 | 0.752 | 0.738 | 0.637 | 0.442 | 0.488
